Assay results: the supplement of paper PMC11061612

Experiments:
[1] = compound: C1CN(CCC1(C(=O)N[C@@H](CCO)C2=CC=C(C=C2)Cl)N)C3=NC=NC4=C3C=CN4 [Capivasertib]
Procedure, shortened: (§1)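 Cancer cell lines were dosed for 72 hours (final DMSO typically 0.2%) after 24 hours at 37°C and 5% CO2 in 1536-well plates containing 7.5 μl DMEM/F12 or RPMI with 10% FBS. Viability came from CellTiter-Glo 2.0 luminescence, scaled between blank-well and DMSO-well means, and dose responses were fitted to a two-parameter logistic curve with a non-linear mixed effects model. The single-agent IC50 was obtained from this fit.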

[2] = compound: C=CCn1c(=O)c2cnc(Nc3ccc(N4CCN(C)CC4)cc3)nc2n1-c1cccc(C(C)(C)O)n1 [AZD1775]; conditions: max 3 µM
Procedure, shortened: as §1

[3] = compound: CN(C)CCCOc1ccc(-c2ccc3ncc4c(c3c2)n(C2CCOCC2)c(=O)n4C)cn1 [AZD0156]; conditions: max 3 µM
Procedure, shortened: as §1

[4] = compound: O=C(c1cc(Cc2n[nH]c(=O)c3ccccc23)ccc1F)N1CCN(C(=O)C2CC2)CC1 [Olaparib]
Procedure, shortened: as §1

[5] = compound: CC(=O)Nc1cccc(-n2c(=O)n(C3CC3)c(=O)c3c(Nc4ccc(I)cc4F)n(C)c(=O)c(C)c32)c1 [Trametinib]; conditions: max 1 µM
Procedure, shortened: as §1

[6] = compound: CC(=O)c1c(C)c2cnc(Nc3ccc(N4CCNCC4)cn3)nc2n(C2CCCC2)c1=O [Palbociclib]; conditions: max 10 µM
Procedure, shortened: as §1

[7] = compound: CC(C)n1c(=O)n(C)c2cnc3cc(F)c(-c4ccc(OCCCN5CCCCC5)nc4)cc3c21 [AZD1390]; conditions: max 0.3 µM
Procedure, shortened: as §1

[8] = compound: CC1(C)CCC(CN2CCN(c3ccc(C(=O)NS(=O)(=O)c4ccc(NCC5CCOCC5)c([N+](=O)[O-])c4)c(Oc4cnc5[nH]ccc5c4)c3)CC2)=C(c2ccc(Cl)cc2)C1 [Venetoclax]; conditions: max 1 µM
Procedure, shortened: as §1

[9] = compound: CC1=C(C(=CC=C1)Cl)NC(=O)C2=CN=C(S2)NC3=CC(=NC(=N3)C)N4CCN(CC4)CCO [Dasatinib]; conditions: max 2 µM
Procedure, shortened: as §1

[10] = compound: CC1=CN2[C@@H](C1)C=NC3=CC(=C(C=C3C2=O)OC)OCCCCCOC4=C(C=C5C(=C4)N=C[C@@H]6CC(=CN6C5=O)C)OC [SG3199]; conditions: max 0.001 µM
Procedure, shortened: as §1

[11] = compound: CCN(CCO)CCCOc1ccc2c(Nc3cc(CC(=O)Nc4cccc(F)c4)[nH]n3)ncnc2c1 [AZD2811]; conditions: max 1 µM
Procedure, shortened: as §1

[12] = compound: CCc1c2c(nc3ccc(O)cc13)-c1cc3c(c(=O)n1C2)COC(=O)[C@]3(O)CC [SN-38]; conditions: max 0.3 µM
Procedure, shortened: as §1

[13] = compound: CN(CC[C@H](CSC1=CC=CC=C1)NC2=C(C=C(C=C2)S(=O)(=O)NC(=O)C3=CC=C(C=C3)N4CCC(CC4)[C@H](C5=CC=CC=C5C6=CC=C(C=C6)Cl)O)S(=O)(=O)C(F)(F)F)CCO [AZD4320]; conditions: max 1 µM
Procedure, shortened: as §1

[14] = compound: COc1cc(Nc2ncc3c(n2)-c2ccc(Cl)cc2C(c2c(F)cccc2OC)=NC3)ccc1C(=O)O [Alisertib]; conditions: max 10 µM
Procedure, shortened: as §1

[15] = compound: COc1cc2ncnc(Nc3ccc(F)c(Cl)c3)c2cc1OCCCN1CCOCC1 [Gefitinib]; conditions: max 10 µM
Procedure, shortened: as §1

[16] = compound: COc1cccc(OCCCN)c1-c1cc(Nc2cnc(C#N)cn2)n[nH]1 [Prexasertib]; conditions: max 1 µM
Procedure, shortened: as §1

[17] = compound: COc1cccc2c1C(=O)c1c(O)c3c(c(O)c1C2=O)C[C@@](O)(C(=O)CO)C[C@@H]3O[C@H]1C[C@H](N)[C@H](O)[C@H](C)O1 [Doxorubicin]; conditions: max 1 µM
Procedure, shortened: as §1

[18] = compound: COc1nnc2ccc(N3CCC(c4ccc(OCCN5CCN(C)C(=O)[C@H]5C)cc4)CC3)nn12 [AZD5153]; conditions: max 1 µM
Procedure, shortened: as §1

[19] = compound: CS(=O)(=O)CCNCc1ccc(-c2ccc3ncnc(Nc4ccc(OCc5cccc(F)c5)c(Cl)c4)c3c2)o1 [Lapatinib]; conditions: max 10 µM
Procedure, shortened: as §1

[20] = compound: C[C@@H](Nc1cc(F)cc(F)c1)c1cc(C(=O)N(C)C)cc2c(=O)cc(N3CCOCC3)oc12 [AZD8186]
Procedure, shortened: as §1

[21] = compound: C[C@@H](Oc1cc(-c2cnn(C3CCNCC3)c2)cnc1N)c1c(Cl)ccc(F)c1Cl [Crizotinib]; conditions: max 10 µM
Procedure, shortened: as §1

[22] = compound: C[C@@H](c1ccc2nccn2c1)n1nnc2ncc(-c3cnn(C)c3)nc21 [Savolitinib]; conditions: max 1 µM
Procedure, shortened: as §1

[23] = compound: C[C@@H]1COCCN1C2=NC(=NC(=C2)C3(CC3)[S@](=N)(=O)C)C4=C5C=CNC5=NC=C4 [AZD6738]; conditions: max 10 µM
Procedure, shortened: as §1

[24] = compound: Cc1c2c(nn1C)CSCc1cc(n(C)n1)CSc1cc(c3ccccc3c1)OCCCc1c(C(=O)O)n(C)c3c-2c(Cl)ccc13 [AZD5991]; conditions: max 1 µM
Procedure, shortened: as §1

[25] = compound: Cc1cc2ncnn2cc1Nc1ncc2c(n1)n(C1CCOCC1)c(=O)n2C [AZD7648]; conditions: max 10 µM
Procedure, shortened: as §1

[26] = compound: Cc1nc(-c2cn3c(n2)-c2ccc(-c4cnn(C(C)(C)C(N)=O)c4)cc2OCC3)n(C(C)C)n1 [Taselisib]; conditions: max 10 µM
Procedure, shortened: as §1

[27] = compound: Cn1cnc2c(F)c(Nc3ccc(Br)cc3Cl)c(C(=O)NOCCO)cc21 [Selumetinib]; conditions: max 10 µM
Procedure, shortened: as §1

[28] = compound: C1CC(C1)(C(=O)[O-])C(=O)[O-].N.N.[Pt+2] [Carboplatin]; conditions: max 10 µM
Procedure, shortened: as §1

[29] = compound: C1CN(CCC1(C(=O)N[C@@H](CCO)C2=CC=C(C=C2)Cl)N)C3=NC=NC4=C3C=CN4 [AZD5363]; conditions: max 10 µM
Procedure, shortened: as §1

[30] = compound: CC(=O)O[C@H]1C(=O)[C@@]2(C)[C@H]([C@H](OC(=O)c3ccccc3)[C@]3(O)C[C@H](OC(=O)[C@H](O)[C@@H](NC(=O)c4ccccc4)c4ccccc4)C(C)=C1C3(C)C)[C@]1(OC(C)=O)CO[C@@H]1C[C@@H]2O [Paclitaxel]; conditions: max 3 µM
Procedure, shortened: as §1

[31] = compound: COc1cc([C@@H]2c3cc4c(cc3[C@@H](O[C@@H]3O[C@@H]5CO[C@@H](C)O[C@H]5[C@H](O)[C@H]3O)[C@H]3COC(=O)[C@H]23)OCO4)cc(OC)c1O [Etoposide]; conditions: max 10 µM
Procedure, shortened: as §1

[32] = compound: N#Cc1cnc(Nc2cc(NC[C@H]3CNCCO3)c(C(F)(F)F)cn2)cn1 [SRA737]; conditions: max 10 µM
Procedure, shortened: as §1

[33] = compound: NC1(c2ccc(-c3nc4ccn5c(=O)[nH]nc5c4cc3-c3ccccc3)cc2)CCC1 [MK-2206]; conditions: max 10 µM
Procedure, shortened: as §1

[34] = compound: Nc1ccn([C@@H]2O[C@H](CO)[C@@H](O)C2(F)F)c(=O)n1 [Gemcitabine]; conditions: max 0.3 µM
Procedure, shortened: as §1

[35] = compound: O=C(Nc1ccc2[nH]nc(-c3ccncc3)c2c1)[C@@H]1CCN(CC(=O)N2CCN(c3ccc(-c4ncccn4)cc3)CC2)C1; conditions: max 5 µM
Procedure, shortened: as §1

[36] = compound: O=c1[nH]cc(F)c(=O)[nH]1 [5-Fluorouracil]; conditions: max 20 µM
Procedure, shortened: as §1

| Cell Line | IC50, cell viability 72 h ([1]; max 3 µM) [µM] | IC50, cell viability 72 h [2] [µM] | IC50, cell viability 72 h [3] [µM] | IC50, cell viability 72 h ([4]; max 3 µM) [µM] | IC50, cell viability 72 h ([1]; max 10 µM) [µM] | IC50, cell viability 72 h [5] [µM] | IC50, cell viability 72 h [6] [µM] | IC50, cell viability 72 h [7] [µM] | IC50, cell viability 72 h [8] [µM] | IC50, cell viability 72 h [9] [µM] | IC50, cell viability 72 h [10] [µM] | IC50, cell viability 72 h [11] [µM] | IC50, cell viability 72 h [12] [µM] | IC50, cell viability 72 h [13] [µM] | IC50, cell viability 72 h [14] [µM] | IC50, cell viability 72 h [15] [µM] | IC50, cell viability 72 h [16] [µM] | IC50, cell viability 72 h [17] [µM] | IC50, cell viability 72 h [18] [µM] | IC50, cell viability 72 h [19] [µM] | IC50, cell viability 72 h ([20]; max 3 µM) [µM] | IC50, cell viability 72 h [21] [µM] | IC50, cell viability 72 h [22] [µM] | IC50, cell viability 72 h [23] [µM] | IC50, cell viability 72 h [24] [µM] | IC50, cell viability 72 h [25] [µM] | IC50, cell viability 72 h [26] [µM] | IC50, cell viability 72 h [27] [µM] | IC50, cell viability 72 h ([4]; max 10 µM) [µM] | IC50, cell viability 72 h [28] [µM] | IC50, cell viability 72 h [29] [µM] | IC50, cell viability 72 h [30] [µM] | IC50, cell viability 72 h [31] [µM] | IC50, cell viability 72 h ([20]; max 10 µM) [µM] | IC50, cell viability 72 h [32] [µM] | IC50, cell viability 72 h [33] [µM] | IC50, cell viability 72 h [34] [µM] | IC50, cell viability 72 h [35] [µM] | IC50, cell viability 72 h [36] [µM] |
| --- | --- | --- | --- | --- | --- | --- | --- | --- | --- | --- | --- | --- | --- | --- | --- | --- | --- | --- | --- | --- | --- | --- | --- | --- | --- | --- | --- | --- | --- | --- | --- | --- | --- | --- | --- | --- | --- | --- | --- |
| NCI-H1869 (Non-Small Cell Lung Carcinoma) | > 3 | > 3 | > 3 | > 3 | – | – | – | – | – | – | – | – | – | – | – | – | – | – | – | – | – | – | – | – | – | – | – | – | – | – | – | – | – | – | – | – | – | – | – |
| NOS-1 (Osteosarcoma) | – | 0.757 | > 3 | – | > 10 | > 1 | > 10 | > 0.3 | > 1 | 0.192 | > 0.001 | > 1 | > 0.3 | > 1 | > 10 | > 10 | > 1 | > 1 | 0.119 | > 10 | > 3 | 7.98 | > 1 | 7.74 | 0.361 | > 10 | 1.44 | > 10 | > 10 | – | – | – | – | – | – | – | – | – | – |
| KURAMOCHI (Ovarian Carcinoma) | – | 2.44 | > 3 | – | – | > 1 | > 10 | > 0.3 | > 1 | 0.1 | > 0.001 | > 1 | 0.171 | > 1 | > 10 | > 10 | 0.0528 | > 1 | 0.14 | > 10 | – | > 10 | > 1 | 6.97 | > 1 | > 10 | > 10 | > 10 | > 10 | > 10 | > 10 | 1.67 | > 10 | > 10 | 4.48 | > 10 | > 0.3 | > 5 | > 20 |
| Calu-3 (Lung Adenocarcinoma) | – | 2.89 | > 3 | – | – | > 1 | > 10 | > 0.3 | > 1 | > 2 | > 0.001 | > 1 | > 0.3 | > 1 | > 10 | 3.73 | > 1 | > 1 | 0.337 | 1.78 | – | > 10 | > 1 | > 10 | > 1 | > 10 | 2.79 | > 10 | > 10 | > 10 | > 10 | > 3 | 5.55 | > 10 | > 10 | > 10 | > 0.3 | > 5 | > 20 |
